Measured values from patent US20220304945A1, “METHODS OF TREATING METABOLIC SYNDROME RELATED CONDITIONS USING RETINOIC ACID RECEPTOR AGONISTS” (Cornell University, priority 2014, published 2022).
Entries after “also recorded” stand apart in the source; their conditions may differ.

Legend:
Type in all cases: in vivo, mouse
[1] = HPLC analysis of serum and liver retinoids, HF-fed mice; conditions: for liver retinyl palmitate and retinol compared to controls: HF diet mice vs control diet
Description: Mice, diet, and drug treatment. WT male C57/BL6 male mice were maintained on either a standard laboratory chow-fed diet (CFD) with 13% kcal fat, (diet #5053, Lab Diet, Inc, St. Louis, Mo.) or a high fat, western style diet (HFD) with 60% kcals from fat, (diet #58126, Lab Diet, Inc., St. Louis, Mo.) for 4 months. One month after the start of the high fat diet treatment, the high fat diet group was further split into 2 groups for 3 months: i) high fat diet and the drinking water containing 1% DMSO; ii) high fat diet and the drinking water containing 1.5 mg/100 ml AC261066, a specific RARβ agonist. Then mice were sacrificed by cervical dislocation. Blood and various tissue samples were harvested.
(§1) Analysis of serum and liver retinoids. The frozen liver tissue samples (˜100 mg) were homogenized in 500 μl cold phosphate-buffered saline (PBS). In addition, 100 μl serum was diluted in cold PBS to total volume of 500 μl. Retinyl acetate was added to each sample before the retinoid extraction for the calculation of extraction efficiency. The retinoids were extracted into 350 μl of organic solution (acetonitrile/butanol, 50:50, v/v) in the dark. The high performance liquid chromatography (HPLC) was performed using a Waters Millennium system (Waters). Each sample (100 μl of the 350 μl) was loaded onto an analytical 5-μm reverse phase C18 column (Vydac, Hesperia, Calif.) and eluted at a flow rate of 1.5 ml/min. Two mobile phase gradient systems were used. Retinoids were identified by HPLC based on two criteria: an exact match of the retention times of unknown peaks with those of authentic retinoid standards and identical UV light spectra (220-400 nm) of unknowns against spectra from authentic retinoid standards during HPLC by the use of a photodiode array detector. The amounts of retinoids were calculated from the areas under the peaks detected at the wave-length of 325 nm. The levels of retinol and retinyl esters were normalized to the tissue weight.
as §1, with “Millenium” for “Millennium”

[2] = test system: srebp1-c, fas, dgat1, fgf21, ppar-γ, sirt1, ppar-α, srebp-2, hmgcr, pepck mRNA; assay: Q-RT-PCR of hepatic lipogenic, cholesterol and gluconeogenic genes, HFD-fed mice (Example 15)
Description: WT male C57/BL6 male mice were maintained on either a standard laboratory chow-fed diet (Con) with 13% kcal fat, (diet #5053, Lab Diet, Inc, St. Louis, Mo.) or a high fat, western style diet (HFD) with 45% kcals from fat, (diet #58126, Lab Diet, Inc., St. Louis, Mo.) for 4 months. One month after the start of the HFD treatment, the HFD group was further split into 3 groups for 3 months: i) HFD and the drinking water containing 1% DMSO; ii) high fat diet (HFD) and drinking water containing 1.5 mg/100 ml AC261066, a specific RARβ agonist in 1% DMSO or iii) HFD and drinking water containing 1.5 mg/100 ml CD1530, a specific RARγ agonist in 1% DMSO. Then mice were sacrificed by cervical dislocation. Blood and various tissue samples were harvested.
Total RNA was extracted from mouse tissues using TRIzol reagent (Life technologies) and (1 μg) was used to synthesize cDNA. cDNA synthesis was performed at 42° C. for 1 h in a final volume of 20 μl using qScript (Quanta, MD). Q-RTPCR was performed as previously described (15). Primers for gene expression used were as follows: […]

[3] = test system: SREBP1, FASN, PPAR-α, CPT1-α, MCP-1, TNF-α, α-SMA mRNA; assay: PCR of kidney genes of lipid metabolism, inflammation and fibrosis in HFD, Ob/Ob and Db/Db mice (Example 23)
Description: Quantitative RT-PCR (Q-PCR)-Q-PCR was performed using SYBR Green PCR master mix on a Bio-Rad MyiQ2 Real Time PCR iCycler (Bio-Rad, Inc. Hercules, Calif.). Gene specific primers (Table 5) were used to amplify mRNA target genes, which were normalized to Hprt internal control genes. cDNA from 3-5 mice per experimental group was analyzed for relative mRNA fold changes, calculated using the Pfaffl method (Pfaffl M W, A new mathematical model for relative quantification in real-time RT-PCR, Nucleic Acids Res. 2001 May 1; 29(9):e45). Relative gene expression values are reported as mean±standard error of the mean (S.E.M) and P-values calculated using one-way analysis of variance followed by Bonferroni multiple comparison test post-hoc analysis.
Diabetic kidney disease (aka diabetic nephropathy (DN)) frequently occurs in individuals with type 2 diabetes. The causes of DN are unclear but insulin resistance, hyperlipidemia and obesity are implicated because these states can impair renal lipid metabolism leading to the accumulation of free fatty acids (FFA), which can promote renal inflammation, fibrosis and impaired kidney function. There is evidence that transcriptions factors involved in de novo lipid synthesis such as srebpl contribute to the pathogenesis of DN. […] HF-fed mice treated with AC261066 had no increase in mRNA transcripts of SREBP1 and FASN (FIG. 33A).
We also measured kidney mRNA levels of pro-inflammatory and fibrogenic mediators MCP-1 (aka CCL2), TNF-α, and α-SMA in HFD-fed mice and two genetic mouse models of obesity and diabetes, Ob/Ob and Db/Db mice. MCP-1, TNF-α, and α-SMA are implicated in inflammation and fibrosis in DN and expression of these genes are frequently elevated in models of DN. […] Kidney mRNA transcripts of α-SMA, which contributes to DN fibrosis, was increased 5-6 fold in HFD Ob/Ob and Db/Db mice compared to wt con (FIG. 33D). HFD Ob/Ob and Db/Db mice treated AC261066 had 40-50% reductions in a-SMA transcripts compared to their respective HFD and genetic controls (FIG. 33D).

[4] = HFD, Ob/Ob and Db/Db mice vs respective untreated

For `CCCCOCCOc1nc(-c2ccc(C(=O)O)c(F)c2)sc1C` [AC261066], the “retinyl palmitate in liver, higher than HF-vehicle treated mice” value ([1]; HF diet mice) was 55%, the “vitamin A deficiency (VA depletion) in liver” value ([1]; HF diet mice) was “partially reverses” and the “liver retinyl palmitate and retinol compared to controls” value [1] was “significantly lowered”. The “hepatic gene expression of pepck” value [2] was “not affected”, the “hepatic mRNA levels of lipogenic proteins srebp1-c, fas, dgat1, fgf21, ppar-γ” value [2] was “greatly reduces; also recorded: significantly reduced” and the “hepatic mRNA levels of sirt1 and ppar-α” value [2] was “prevented a large decrease”. The “hepatic mRNA levels of srebp-2 and hmgcr” value [2] was “significantly reduced”, the “kidney mRNA transcripts of PPAR-α and CPT1-α, increase vs HFD-fed mice” value ([3]; HF-fed mice) was “approximately 2 fold” and the “kidney mRNA transcripts of SREBP1 and FASN” value ([3]; HF-fed mice) was “no increase”. For the same compound, the “reduction in kidney α-SMA transcripts” value ([3]; HFD, Ob/Ob and Db/Db mice vs respective controls) was 40-50%, the “reduction in kidney mRNA transcripts of MCP-1” value [3, 4] was 40-50% and the “reduction in kidney mRNA transcripts of TNF-α” value [3, 4] was 40-50%.
In the case of `O=C(O)c1ccc(-c2ccc3cc(O)c(C45CC6CC(CC(C6)C4)C5)cc3c2)cc1` [CD1530], the “retinyl palmitate in liver, lower than HF-vehicle treated mice” value ([1]; HF diet mice) is reported as roughly 48%, the “liver retinyl palmitate and retinol compared to controls” value [1] is reported as “significantly lowered” and the “hepatic gene expression of pepck” value [2] is reported as “not affected”. For the same compound, the “hepatic mRNA levels of srebp-2 and hmgcr” value [2] was “not observed”.
